Measured values taken from ChEMBL document CHEMBL3039007, “Structure-based identification of OATP1B1/3 inhibitors” (Mol Pharmacol, 2013).
Where “and” joins values, the source holds several entries; their conditions need not be identical. Identical values can stand only once.

Key:
[1] = molecular target: T1, Solute carrier organic anion transporter family member 1B1 (Homo sapiens, UniProt Q9Y6L6); details: chinese hamster, cho, 10 µM
T1 sequence (Q9Y6L6 whole entry): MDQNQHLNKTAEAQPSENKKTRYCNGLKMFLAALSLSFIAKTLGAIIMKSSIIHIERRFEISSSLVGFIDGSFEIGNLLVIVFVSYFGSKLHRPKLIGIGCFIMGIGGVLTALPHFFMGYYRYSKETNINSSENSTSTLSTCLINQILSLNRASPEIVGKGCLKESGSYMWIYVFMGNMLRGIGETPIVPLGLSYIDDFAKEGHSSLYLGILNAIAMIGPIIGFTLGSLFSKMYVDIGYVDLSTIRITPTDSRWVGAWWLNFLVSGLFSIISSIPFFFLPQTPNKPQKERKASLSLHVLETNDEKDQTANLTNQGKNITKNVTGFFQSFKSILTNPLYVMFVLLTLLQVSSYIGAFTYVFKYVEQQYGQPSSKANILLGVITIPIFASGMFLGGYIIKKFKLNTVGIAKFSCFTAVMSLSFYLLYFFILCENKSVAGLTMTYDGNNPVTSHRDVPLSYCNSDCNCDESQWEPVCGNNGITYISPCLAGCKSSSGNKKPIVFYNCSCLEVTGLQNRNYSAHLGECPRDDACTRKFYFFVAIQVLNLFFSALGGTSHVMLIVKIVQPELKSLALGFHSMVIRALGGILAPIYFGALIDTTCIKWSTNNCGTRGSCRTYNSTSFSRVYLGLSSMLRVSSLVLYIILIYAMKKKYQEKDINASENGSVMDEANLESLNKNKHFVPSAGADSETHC

[2] = molecular target: T2, Solute carrier organic anion transporter family member 1B3 (Homo sapiens, UniProt Q9NPD5); details: chinese hamster, cho, 10 µM
T2 sequence (Q9NPD5 whole entry): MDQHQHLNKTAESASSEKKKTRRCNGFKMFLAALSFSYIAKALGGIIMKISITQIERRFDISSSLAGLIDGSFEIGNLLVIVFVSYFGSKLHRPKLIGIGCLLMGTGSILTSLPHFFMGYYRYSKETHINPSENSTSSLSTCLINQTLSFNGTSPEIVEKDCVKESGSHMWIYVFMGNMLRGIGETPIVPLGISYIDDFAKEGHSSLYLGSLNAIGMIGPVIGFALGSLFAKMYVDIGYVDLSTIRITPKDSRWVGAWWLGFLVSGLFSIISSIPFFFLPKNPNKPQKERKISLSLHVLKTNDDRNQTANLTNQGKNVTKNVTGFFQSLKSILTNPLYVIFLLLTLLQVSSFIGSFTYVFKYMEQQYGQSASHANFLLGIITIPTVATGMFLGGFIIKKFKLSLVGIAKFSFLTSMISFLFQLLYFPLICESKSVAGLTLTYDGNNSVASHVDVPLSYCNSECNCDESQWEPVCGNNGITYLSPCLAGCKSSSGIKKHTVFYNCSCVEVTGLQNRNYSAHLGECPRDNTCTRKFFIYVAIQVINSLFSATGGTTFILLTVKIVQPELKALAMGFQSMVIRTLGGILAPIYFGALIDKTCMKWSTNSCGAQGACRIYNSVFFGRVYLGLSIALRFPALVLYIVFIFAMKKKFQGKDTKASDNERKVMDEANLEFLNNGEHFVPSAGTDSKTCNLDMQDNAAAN

[3] = molecular target: T2, Solute carrier organic anion transporter family member 1B3
[4] = molecular target: T1, Solute carrier organic anion transporter family member 1B1
[5] = molecular target: T1, Solute carrier organic anion transporter family member 1B1; remark: listed apart in the source
[6] = molecular target: T2, Solute carrier organic anion transporter family member 1B3; remark: listed apart in the source

Structure (SMILES)	residual activity [1]	residual activity [2]	IC50 [4]	IC50 [6]	Ki [3]	Ki [5]
CC(C)=CCC[C@]1(C)C=Cc2c(O)c3c(c(CC=C(C)C)c2O1)O[C@]12C(C[C@@H]4C[C@H]1C(C)(C)O[C@@]2(C/C=C(/C)C(=O)O)C4O)C3=O (stereo not given in full)	12.48%	4.414%	2000 nM	2820 nM	2160 nM	1100 nM
CC1(C)[C@@H](O)C=C[C@]2(C)[C@H]3CC[C@@]4(C)[C@H](c5ccoc5)OC(=O)[C@H]5O[C@]54[C@]3(C)C(=O)C[C@@H]12	10.83%	22.22%	2400 nM	5010 nM	3810 nM	1330 nM
C=C1[C@@H]2CC[C@@]3(C)[C@H](c4ccoc4)OC(=O)C[C@]13O[C@H]1C[C@H](OC(C)=O)C(C)(C)[C@H](CC(=O)OC)[C@]12C	13.98%	21.87%	933 nM	4470 nM	3470 nM	510 nM
CC(=O)O[C@@H]1CC[C@]2(C)[C@H](C[C@@H](OC(C)=O)[C@]3(C)C4=CC(=O)O[C@H](c5ccoc5)[C@@]4(C)CC[C@@H]23)C1(C)C	18.95%	8.019%	813 nM	1410 nM	1080 nM	440 nM
CC(=O)O[C@@H]1C[C@@H]2C(C)(C)[C@H](O)C=C[C@@]2(C)[C@@H]2CC[C@@]3(C)C(=CC(=O)O[C@@H]3c3ccoc3)[C@@]12C	6.132%	23.16%	2190 nM	3720 nM	2890 nM	1210 nM
CC(=O)O[C@@H]1C[C@@H]2C(C)(C)C(=O)C=C[C@@]2(C)[C@@H]2CC[C@@]3(C)C(=CC(=O)O[C@@H]3c3ccoc3)[C@@]12C	8.693%	22.73%	1510 nM	3800 nM	2890 nM	830 nM
CC(=O)Oc1c2c(c(CC=C(C)C)c3c1C(=O)C1=C[C@@H]4CC5C(C)(C)OC(C/C=C(\C)C(=O)O)(C4=O)[C@@]15O3)OC(C)(CCC=C(C)C)C=C2 (stereo not given in full) [ACETYL ISOGAMBOGIC ACID]	10.38%	30.34%	4070 nM	5370 nM	4170 nM	2240 nM
CC(=O)O[C@@H]1C[C@@]2(C)[C@H](c3ccoc3)C[C@H]3O[C@]32[C@]2(C)C(=O)C(O)=C3C(C)(C)C(=O)C=C[C@]3(C)C12 (stereo not given in full) [ANTHOTHECOL]	20.37%	12.42%	3020 nM	3470 nM	2640 nM	1650 nM
CCCCC/C=C\C/C=C\C/C=C\C/C=C\CCCC(=O)O [ARACHIDONIC ACID]	23.4%	5.402%	603 nM	1070 nM	820 nM	330 nM
Cc1cc2c(C(C)C)c(O)c(O)c(C=O)c2c(O)c1-c1c(C)cc2c(C(C)C)c(O)c(O)c(C=O)c2c1O [GOSSYPOL]	24.45% and 68.48%	–	3240 nM	4570 nM	3470 nM	1780 nM
CC[C@H]1OC(=O)[C@H](C)C(=O)[C@H](C)[C@@H](O[C@@H]2O[C@H](C)C[C@H](N(C)C)[C@H]2O)[C@](C)(OC)C[C@@H](C)C(=O)[C@H](C)[C@H]2N(CCCCn3cnc(-c4cccnc4)c3)C(=O)O[C@]12C [TELITHROMYCIN]	62.01%	60.1%	3470 nM	5890 nM	–	–

Further lines, with some results ahead:

residual activity [1]	residual activity [2]	IC50 [4]	IC50 [6]	Structure (SMILES)	Ki [3]	Ki [5]
77.57%	41.88%	1860 nM	1260 nM	CCCc1nc2c(C)cc(-c3nc4ccccc4n3C)cc2n1Cc1ccc(-c2ccccc2C(=O)O)cc1	960 nM	1030 nM
25.14%	17.42%	3310 nM	5250 nM	C[C@@H]1O[C@H](O[C@@H]2[C@@H](O)[C@H](O[C@@H]3[C@@H](O)[C@@H](O)[C@@H](O[C@H]4[C@@H](OC(=O)[C@]56CCC(C)(C)C[C@@H]5C5=CC[C@@H]7[C@@]8(C)CC[C@H](O[C@@H]9O[C@H](CO)[C@@H](O)[C@H](O)[C@H]9O)C(C)(C)[C@@H]8CC[C@@]7(C)[C@]5(C)C[C@H]6O)OC[C@@H](O)[C@@H]4O)O[C@H]3C)OC[C@H]2O)[C@H](O)[C@H](O)[C@H]1O	4020 nM	1820 nM
54.82%	48.28%	6310 nM	3310 nM	CC1(C)C(=O)CC[C@]2(C)[C@@H]1C[C@@H](O)[C@]1(C)C3=CC(=O)O[C@H](c4ccoc4)[C@@]3(C)CC[C@@H]21	2550 nM	3440 nM
22.81%	54.65%	3550 nM	7760 nM	CC(=O)O[C@@H]1C[C@H]2C(C)(C)C(=O)CC[C@]2(C)[C@H]2CC[C@]3(C)C(=CC(=O)O[C@H]3c3ccoc3)[C@@]21C	5990 nM	1940 nM
20.57%	46.1%	871 nM	3980 nM	CC(=O)O[C@H]1C[C@@H](OC(C)=O)C(C)(C)[C@@H]2C[C@@H](OC(C)=O)[C@]3(C)[C@H]([C@H](OC(C)=O)C[C@@]4(C)[C@H](c5ccoc5)OC(=O)[C@H]5O[C@@]534)[C@@]12C	3050 nM	480 nM
14.28%	9.535%	977 nM	2950 nM	CC(=O)O[C@H]1C[C@@H](OC(C)=O)C(C)(C)[C@@H]2C[C@@H](O)[C@@]3(C)[C@H](CC[C@]4(C)[C@@H](c5ccoc5)OC(=O)[C@H]5O[C@@]534)[C@@]12C	2270 nM	540 nM
31.07%	18.79%	3720 nM	8510 nM	O=C(O[C@@H]1Cc2c(O)cc(O)cc2O[C@@H]1c1cc(O)c(O)c(O)c1-c1c([C@H]2Oc3cc(O)cc(O)c3C[C@H]2O)cc(O)c(O)c1O)c1cc(O)c(O)c(O)c1 [2',2'-BISEPIGALLOCATECHIN MONOGALLATE]	6500 nM	2050 nM
7.365%	33.77%	2690 nM	5250 nM	CC(C)C1=CC2=CC[C@@H]3[C@](C)(CCC[C@@]3(C)C(=O)O)[C@H]2CC1 [ABIETIC ACID]	4080 nM	1470 nM
4.068%	20.35%	2630 nM	4070 nM	O=C1C=CC(=C(c2ccc(O)cc2)c2ccc(O)cc2)C=C1 [AURIN]	3150 nM	1430 nM
56.21%	71.16%	4070 nM	7080 nM	Cc1ccc(C)c(OCCCC(C)(C)C(=O)O)c1 [GEMFIBROZIL]	–	–
20.54%	23.84%	1700 nM	3240 nM	CC(=O)O[C@@H]1C[C@H]2C(C)(C)[C@@H](O)CC[C@]2(C)[C@H]2CC[C@@]3(C)[C@H](c4ccoc4)OC(=O)[C@H]4O[C@]43[C@@]21C [beta-DIHYDROGEDUNOL]	–	–
